Data on 57 molecules can be found in patent US8501713B2, “Drug combinations for the treatment of duchenne muscular dystrophy” (Summit Corporation PLC, priority 2007, dated 2013).

The structures appear in SMILES notation.

The first assay concerns Utrophin A promoter linked to a luciferase reporter gene. The assay is described as follows: Luciferase reporter assay (murine H2K cells). In kind it is cell-based. The note with it: Mus musculus, H2K mdx, luciferase level relative to control; H2K/mdx/Utro A reporter cells; compound 10 μM final concentration; read-out: Activity. The gist of the method: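 Immortalized mdx mouse H2K myoblasts stably carrying a ~5 kb utrophin A promoter–luciferase construct, kept at 33° C, 10% CO2. After 24 hrs plating, compound added at 10 μM final for 48 hrs; luciferase light output read after in-situ lysis.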
Consider `CC(C)C(=O)Nc1ccc2oc(Cc3ccccc3)nc2c1` [Example 228, N-(2-benzylbenzo[d]oxazol-5-yl)isobutyramide], for which the activity at 10 µM is below 200%.

In the case of `O=C(Nc1ccc2oc(-c3ccc(Cl)cc3)nc2c1)c1ccncc1` [Example 87, N-(2-(4-chlorophenyl)benzo[d]oxazol-5-yl)isonicotinamide], the activity at 10 µM is below 200%. In the case of `Cc1ccc(-c2nc3cnccc3o2)cc1` [Example 192, 2-p-tolyloxazolo[4,5-c]pyridine], the activity at 10 µM is below 200%.

Regarding `O=[N+]([O-])c1ccc2oc(-c3cccs3)nc2c1` [Example 388, 5-nitro-2-(thiophen-2-yl)benzo[d]oxazole], the activity at 10 µM is below 200%. Turning to `CC(C)(C)c1ccc2oc(-c3ccc4ccccc4c3)nc2c1` [Example 451, 5-tert-Butyl-2-(naphthalen-2-yl)benzo[d]oxazole], the activity at 10 µM was below 200%. Regarding `CC(=O)Nc1ccc(-c2nc3cc(NC(=O)C(C)C)ccc3o2)cc1` [Example 374, N-(2-(4-acetamidophenyl)benzo[d]oxazol-5-yl)isobutyramide], the activity at 10 µM was below 200%. In the case of `CC(C)C(=O)Nc1ccc2[nH]c(-c3ccccc3)nc2c1` [Example 188, N-(2-phenyl-1H-benzo[d]imidazol-5-yl)isobutyramide], the activity at 10 µM fell in the range of 301 to 400%. Take `Nc1ccc2oc(-c3ccc4ccccc4n3)nc2c1` [Example 402, 2-(quinolin-2-yl)benzo[d]oxazol-5-amine]: the activity at 10 µM lay within 301 to 400%. On to `COc1ccccc1C(=O)Nc1ccc2oc(-c3ccc(Cl)cc3)nc2c1` [Example 92, N-(2-(4-chlorophenyl)benzo[d]oxazol-5-yl)-2-methoxybenzamide], for which the activity at 10 µM is below 200%. As for `Cc1ccc2oc(-c3ccc4ccccc4c3)nc2c1` [Example 458, 5-Methyl-2-(naphthalen-2-yl)benzo[d]oxazole], the activity at 10 µM was above 401%. The same measure, in the same setting: for `CC(C)S(=O)(=O)Nc1ccc2oc(-c3ccc(Cl)cc3)nc2c1` [Example 261, N-(2-(4-chlorophenyl)benzo[d]oxazol-5-yl)propane-2-sulfonamide] the value was below 200%.

For the molecule `O=[N+]([O-])c1ccc2oc(-c3ccccn3)nc2c1` [Example 171, 5-nitro-2-(pyridin-2-yl)benzo[d]oxazole], the activity at 10 µM is below 200%.

For the molecule `CC(C)C(=O)Nc1ccc2oc(-c3ccc(C4CCCCC4)cc3)nc2c1` [Example 430, N-(2-(4-cyclohexylphenyl)benzo[d]oxazol-5-yl)isobutyramide], the activity at 10 µM was below 200%. For the molecule `Cc1cccc(-c2nc3cc(N)ccc3o2)c1` [Example 196, 2-m-tolylbenzo[d]oxazol-5-amine], the activity at 10 µM is below 200%. In the case of `O=C(Nc1ccc2oc(-c3ccccc3)nc2c1)c1cccs1` [Example 37, N-(2-phenylbenzo[d]oxazol-5-yl)thiophene-2-carboxamide], the activity at 10 µM was in the range of 201 to 300%.

`O=C(O)c1ccc2oc(-c3ccccc3)nc2c1` [Example 107, 2-phenylbenzo[d]oxazole-5-carboxylic acid]: the activity at 10 µM is 301 to 400%.

Take `Nc1cccc(-c2ccc3oc(-c4ccc(Cl)cc4)nc3c2)c1` [Example 328, 3-(2-(4-chlorophenyl)benzo[d]oxazol-5-yl)aniline]: the activity at 10 µM is above 401%.

Regarding `COCCC(=O)Nc1ccc2oc(-c3ccc(C)cc3)nc2c1` [Example 160, 3-methoxy-N-(2-p-tolylbenzo[d]oxazol-5-yl)propanamide], the activity at 10 µM was above 401%. Regarding `O=C(Nc1ccc2oc(-c3cccnc3)nc2c1)c1cccnc1` [Example 81, N-(2-(pyridin-3-yl)benzo[d]oxazol-5-yl)nicotinamide], the activity at 10 µM is below 200%. With `Clc1ccc(-c2nc3cc(-c4ccccc4)ccc3o2)cc1` [Example 162, 2-(4-chlorophenyl)-5-phenylbenzo[d]oxazole], the activity at 10 µM was below 200%.

As to `Clc1ccc2nc(-c3ccncc3)oc2c1` [Example 331, 6-chloro-2-(pyridin-4-yl)benzo[d]oxazole], the activity at 10 µM was below 200%. Consider `CC(C)C(=O)Nc1ccc2oc(-c3ccc(-c4ccccc4)cc3)nc2c1` [Example 411, N-(2-(biphenyl-4-yl)benzo[d]oxazol-5-yl)isobutyramide], for which the activity at 10 µM is below 200%. Regarding `CC(C)C(=O)Nc1ccc2oc(-c3cnc4ccccc4c3)nc2c1` [Example 415, N-(2-(quinolin-3-yl)benzo[d]oxazol-5-yl)isobutyramide], the activity at 10 µM was above 401%.

With `CCN(CC)c1ccc(-c2nc3cc(NC(=O)c4ccc(Cl)cc4)ccc3o2)cc1` [Example 63, 4-chloro-N-(2-(4-(diethylamino)phenyl)benzo[d]oxazol-5-yl)benzamide], the activity at 10 µM is below 200%. Same read-out and setting: for `COc1ccc2cc(-c3nc4cc(NC(=O)C(C)C)ccc4o3)ccc2c1` [Example 412, N-(2-(6-methoxynaphthalen-2-yl)benzo[d]oxazol-5-yl)isobutyramide] the value was below 200%; for `Fc1ccc(-c2ccc3oc(-c4ccc(Cl)cc4)nc3c2)cn1` [Example 315, 2-(4-chlorophenyl)-5-(6-fluoropyridin-3-yl)benzo[d]oxazole], below 200%. For the molecule `CCS(=O)(=O)c1ccc2oc(-c3ccc4c(c3)OCO4)nc2c1` [Example 394, 2-(benzo[d][1,3]dioxol-5-yl)-5-(ethylsulfonyl)benzo[d]oxazole], the activity at 10 µM is above 401%. Still for that read-out and setting: for `CC(=O)Nc1ccc(-c2ccc3oc(-c4ccc(Cl)cc4)nc3c2)cn1` [Example 358, N-(5-(2-(4-chlorophenyl)benzo[d]oxazol-5-yl)pyridin-2-yl)acetamide] the value was below 200%. For `O=[N+]([O-])c1ccc2oc(-c3ccco3)nc2c1` [Example 366, 2-(furan-2-yl)-5-nitrobenzo[d]oxazole], the activity at 10 µM was below 200%. Regarding `Nc1cc2oc(-c3ccc4c(c3)OCO4)nc2cc1Cl` [Example 397, 2-(benzo[d][1,3]dioxol-5-yl)-5-chlorobenzo[d]oxazol-6-amine], the activity at 10 µM is 301 to 400%. Take `CCN(CC)c1ccc(-c2nc3cc(NC(=O)c4ccccc4OC)ccc3o2)cc1` [Example 66, N-(2-(4-(diethylamino)phenyl)benzo[d]oxazol-5-yl)-2-methoxybenzamide]: the activity at 10 µM is below 200%. For `CCS(=O)(=O)c1ccc2oc(-c3cccc(Cl)c3Cl)nc2c1` [Example 304, 2-(2,3-diChlorophenyl)-5-(ethylsulfonyl)benzo[d]oxazole], the activity at 10 µM is below 200%.

Staying with this assay, now noted: luciferase reporter assay in murine H2K cells; classified relative to control.
Turning to `Cc1cc2oc(C(=O)NCc3ccncc3)c(C)c2cc1C` [Example 656], the Activity entry is “+++ (Between 301% and 400% relative to control)”. Regarding `CCOCCC(=O)Nc1ccc(-c2nc3ccc(C)cc3s2)cc1` [Example 660], the Activity result is “+++ (Between 301% and 400% relative to control)”. `O=C(Nc1ccc(-c2nc3ccccc3s2)cc1)C1CCCO1` (stereo not drawn) [Example 680]: the Activity result was “++ (Between 201% and 300% relative to control)”. The same measure, in the same setting: for `Oc1ccccc1-c1nc2ccccc2s1` [Example 483] the value was “+ (Up to 200% relative to control)”; for `Nc1ccc2oc(-c3ccccc3F)nc2c1` [Example 569], “+++ (Between 301% and 400% relative to control)”; for `Cc1ccc2nc(-c3ccc(N)cc3)oc2c1` [Example 506], “+ (Up to 200% relative to control)”. As for `CCn1c(C)nc2cc(-c3ccccc3)ccc21` [Example 634], the Activity result was “+++ (Between 301% and 400% relative to control)”. Still for that read-out and setting: for `Cc1ccc2oc(-c3ccc(Cl)c(NC(=O)c4ccco4)c3)nc2c1` [Example 677] the value was “++ (Between 201% and 300% relative to control)”; for `COc1ccc(CSc2nc3ccccc3n2C)cc1F` [Example 645], “+++ (Between 301% and 400% relative to control)”. On to `Nc1cc(-c2nc3ccccc3s2)ccc1Cl` [Example 592], for which the Activity result is reported as “++++ (Above 401% relative to control)”. Turning to `CSc1ccc(-c2nc3ccccc3[nH]2)cc1` [Example 543], the Activity result is “++ (Between 201% and 300% relative to control)”. For `Nc1ccc(-c2nc3ccccc3[nH]2)cc1` [Example 475], the Activity entry is listed as “+ (Up to 200% relative to control)”. In the case of `Clc1ccc(-c2nc3cc(CN4CCCCC4)ccc3o2)cc1` [Example 469], the Activity result is “+ (Up to 200% relative to control)”. In the case of `O=S(=O)(c1ccc(-c2nc3ccccc3s2)cc1)N1CCCCC1` [Example 516], the Activity entry is “++ (Between 201% and 300% relative to control)”. Take `Cc1cc(C)c2nc(-c3ccc(N)cc3)oc2c1` [Example 590]: the Activity result is “++++ (Above 401% relative to control)”. With `Cc1cc(C)c2oc(-c3ccc(Cl)c(N)c3)nc2c1` [Example 627], the Activity entry was “++++ (Above 401% relative to control)”. Turning to `CC(=O)Nc1ccc2[nH]c(-c3ccco3)nc2c1` [Example 534], the Activity result is reported as “+ (Up to 200% relative to control)”. For the molecule `Nc1ccc2[nH]c(-c3ccc(Cl)cc3)nc2c1` [Example 560], the Activity result was “+++ (Between 301% and 400% relative to control)”.

For the molecule `Nc1ccc(-c2nc3ccc(N)cc3o2)cc1` [Example 544], the Activity result is “++ (Between 201% and 300% relative to control)”. With `CCn1c(C)nc2cc(C(=O)Nc3ccccc3)ccc21` [Example 615], the Activity entry is “++++ (Above 401% relative to control)”. `Cc1ccc2[nH]c(-c3ccc([N+](=O)[O-])cc3)nc2c1` [Example 605]: the Activity entry is “+++ (Between 301% and 400% relative to control)”. On the same count and under the same terms, for `Nc1cccc(-c2nc3cc(Cl)ccc3o2)c1` [Example 622] the value was “++++ (Above 401% relative to control)”; for `c1ccc(OCc2nc3ccccc3[nH]2)cc1` [Example 471], “++ (Between 201% and 300% relative to control)”; for `O=C(Nc1nc2ccccc2[nH]1)c1cccc(Cl)c1` [Example 679], “++ (Between 201% and 300% relative to control)”.

As to `Oc1ccc2nc(-c3ccc(Cl)cc3)oc2c1` [Example 579], the Activity entry is reported as “++++ (Above 401% relative to control)”.
